Data taken from patent US12302928B2, “Application of acylated derivative of amino acid in preparation of animal feed additive” (ANIPHA TECHNOLOGIES PTY LTD, priority 2018, dated 2025).
Like-named read-outs stand apart in the source and are kept apart here.

Key:
[1] = system: Jingbai laying hens; experiment: Breeding test B2: effect on the production performance of laying hens; assay type: in vivo; conditions: 150 ppm in basal daily ration, 158 days; for EPR (egg production rate): 147-day-old laying hens
From the text: The test adopted a single-factor random design. 1,080 147-day-old Jingbai laying hens with similar body weight were selected and randomly divided into 9 groups, with 6 replications per group and 20 Jingbai laying hens per replication. The poultry houses and utensils were sterilized before the test. During the test period, the Jingbai laying hens were cage cultured in the same poultry house under the same feeding and management conditions. The basal daily ration was mainly corn-soybean meal, and no other antioxidant ingredients and growth promoters were added additionally during the entire feeding process. The test groups were the control group (group I) and the test groups II˜IX, respectively. The basal daily ration was only given for the control group, and 150 ppm of different acylated derivatives of the aminobutyric acid were added into the basal daily ration for the test groups II˜IX. The pre-feeding period was 10 days, and the test period was 158 days. The test laying hens were free to drink water and eat feed, and were fed twice a day. The test takes each repetition as a unit, and records the total egg number, the egg production, and the feed intake every day, and calculates the egg production rate (EPR), the average daily feed intake (ADFI, g/d), the egg weight (EW, g) and the feed-to-egg ratio (FER) of the laying hens during the entire test. The formula for calculation was as follows: Egg production rate (%)=average daily total egg number/number of laying hens×100; Egg weight (g)=average daily total egg weight/average daily total egg number; Feed-to-egg ratio=average daily feed intake/egg weight.

[2] = system: Duroc×Landrace×Yorkshire cross-bred bacon-type pigs; experiment: Breeding test B1: effect on the production performance of pigs; assay type: in vivo; conditions: 400 ppm in basal daily ration, 28 days; for ADFI (average daily feed intake) / ADG (average daily gain): 65-day-old pigs; for FCR (feed conversion ratio): ADFI/ADG
From the text: 270 65-day-old Duroc×Landrace×Yorkshire cross-bred bacon-type pigs with similar body weight were randomly divided into 9 groups, with 3 replications per group and 10 pigs (half of male and female) per replication. The pigpens and utensils were sterilized before the test. During the test period, the test pigs were free-stall housed in the same pigpen under the same feeding and management conditions. During the test period, the test pigs were free to drink water and eat feed, and test pigs were fed twice a day. The test groups were the control group (group I) and the test groups II˜IX, respectively. Wherein the basal daily ration was only given for the control group, and 400 ppm of different acylated derivative of the aminobutyric acid was added into the basal daily ration for the test groups II˜IX.
No other antioxidant ingredients and growth promoters were added for the test groups during the entire feeding process. The test period was 28 days, with each repetition as a unit, the test pigs were weighed at the age of 93 days without stopping water and feed for 12 hours; the average daily feed intake (ADFI, g/d*each pig), the average daily gain (ADG, g/d*each pig) and the feed conversion ratio (FCR) were calculated for each of the test groups. The formula for calculation was as follows: Average daily feed intake=(total amount of feed−remaining amount of feed)/(number of days of test×number of pigs per repetition); Average daily gain=(average body weight at the end of the test−average body weight at the beginning of the test)/number of days of test; Feed conversion ratio=average daily feed intake/average daily gain.

[3] = system: grass carps; experiment: Breeding test B4: use in fish feed (growth of grass carps); assay type: in vivo; conditions: for change in vivo at 150 ppm, 150 µg/mL: po, 1344 h, read-out: Weight gain rate
Description: The test fishes used were grass carps, and the test was carried out in the aquaculture farm of the test field of Guangzhou Insighter. Healthy, lively, and uniform grass carp fingerlings were fed in large cages for 4 weeks before being used for formal breeding test. The experimental system was a small floating cage. Both the small cage and the temporary cage were placed in a 3500 m^2 pond of the test field, the depth of the pond was about 1.5 m, and the water of the pond was fully aerated in the bottom of the pond. During the test, 360 grass carps that were hungry for 1 day were randomly divided into 9 groups, with 4 replications per group and 10 grass carps per replication. All of the grass carps were weighed, and then were randomly placed in 36 cages and fed with different test feeds. The test feeds were self-prepared, and 150 ppm of different acylated derivatives of the aminobutyric acid were added into the basal feed for different test groups, respectively. The test groups were the control group (group I) and the test groups IIIX, respectively. The basal daily ration was only given for the control group, and 150 ppm of different acylated derivatives of the aminobutyric acid were added into the basal daily ration for the test groups IIIX.
The test adopted time-limited artificial feeding, and the feeding amount was adjusted once a week. The feeding rate of the control group and the feeding rate of the test groups (according to the initial body weight) were exactly the same, and the grass carps were fed twice a day (7:30 and 15:00). The test period was 8 weeks.

[4] = system: yellow-feathered broilers; experiment: Breeding test B3: effect on the production performance of broilers; assay type: in vivo; conditions: 300 ppm in basal daily ration, 20 days; for ADFI (average daily feed intake): 1-day-old broilers; for FCR (feed conversion ratio): ADFI/ADG
From the text: The test adopted a single-factor random design. 1,080 1-day-old yellow-feathered broilers with similar body weight and the average weight of 50 g were selected and randomly divided into 9 groups, with 6 replications per group and 20 yellow-feathered broilers (half of male and female) per replication. The poultry houses and utensils were sterilized before the test. During the test period, the yellow-feathered broilers were housed in the same poultry house under the same feeding and management conditions. The basal daily ration was mainly corn-soybean meal, and no other antioxidant components and growth promoters were added additionally during the entire feeding process. The test groups were the control group (group I) and the test groups II˜IX, respectively. The basal daily ration was only given for the control group, and 300 ppm of different acylated derivatives of the aminobutyric acid were added into the basal daily ration for the test groups II˜IX.
The test period was 20 days. The test broilers were free to drink water and eat feed, and were fed twice a day. With each repetition as a unit, the test broilers were weighed at the age of 21 days (stopping feed for 12 hours, without stopping water), the feed consumption of test broilers were recorded, and the average daily feed intake (ADFI, g/d*each broiler), the average daily gain (ADG, g/d*each broiler) and feed conversion ratio (FCR) were calculated for each of the test groups. The formula for calculation was as follows: Feed conversion ratio (FCR)=average daily feed intake/average daily gain.

[5] = system: convulsion caused by bicuculline or corazol; conditions: cited from earlier work
[6] = after subcutaneous injection; cited from earlier work
[7] = system: glutamate decarboxylase; conditions: cited from earlier work
[8] = system: nephrotoxicity caused by cephalosporin; conditions: rabbit; 150 mg/kg; cephalosporin at a dose of 150 mg/kg; cited from earlier work

Structure (SMILES)	ADFI (average daily feed intake) [1] [g/day]	EW (egg weight) [1] [g]	EPR (egg production rate) [1] [%]	ADFI (average daily feed intake) [2] [g/d * each pig]	ADG (average daily gain) [2] [g/d * each pig]	FCR (feed conversion ratio) [2]	(FCR) ([3]; 150 ppm in basal feed, 8 weeks)	Average final weight ([3]; 150 ppm in basal feed, 8 weeks) [g]	change in vivo at 150 ppm, 150 µg/mL ([3]; 150 ppm in basal feed, 8 weeks) [%]	ADG (average daily gain) [4] [g/d * each broiler]	ADFI (average daily feed intake) [4] [g/d * each broiler]	FCR (feed conversion ratio) [4]	antagonism of convulsion [5]	time to maximum blood concentration [6] [min]	inhibition of glutamate decarboxylase [7]	change in vivo at 150 ppm, 150 µg/mL [3] [%]	protection of the kidney from cephalosporin nephrotoxicity [8]
NCCCC(=O)NCCCC(=O)O [N-(γ-aminobutyryl)-γ-aminobutyric acid]	160	55.24	84.4	1831	693	2.642	1.80	707	83.7	14.62	28.94	1.98	–	–	–	–	–
CC(=O)NCCCC(=O)O [N-acetyl-γ-aminobutyric acid]	160	55.24	82.2	1827	723	2.665	1.81	733	77.6	15.15	31.06	2.05	–	–	–	–	–
O=C(O)CCCNC(=O)c1ccccc1 [N-benzoyl-γ-aminobutyric acid]	158	54.92	86.7	1837	699	2.628	1.79	721	–	14.13	27.56	1.95	can antagonize the convulsion	≤ 5	can inhibit a glutamate decarboxylase	81.6	can significantly protect the kidney
NCC(=O)NCCCC(=O)O [N-glycyl-γ-aminobutyric acid]	161	55.61	82.9	1728	651	2.655	1.75	755	–	13.02	26.17	2.01	–	–	–	78.2	–
Nc1ccc(C(=O)NCCCC(=O)O)cc1 [N-p-aminobenzoyl-γ-aminobutyric acid]	161	55.31	82.6	1643	632	2.601	1.84	713	79.2	12.42	25.84	2.08	–	–	–	–	–
O=C(O)CCCNC(=O)c1ccc(Cl)cc1 [N-p-chlorobenzoyl-γ-aminobutyric acid]	160	55.07	81.4	1675	642	2.610	1.77	730	81.5	12.32	24.88	2.02	–	–	–	–	–
O=C(O)CCCNC(=O)c1ccc(O)cc1 [N-p-hydroxybenzoyl-γ-aminobutyric acid]	161	55.27	81.8	1602	611	2.620	1.82	710	81.5	12.32	24.52	1.99	–	–	–	–	–
Cc1ccc(C(=O)NCCCC(=O)O)cc1 [N-p-methylbenzoyl-γ-aminobutyric acid]	159	54.81	84.4	1769	672	2.631	1.74	739	82.1	13.84	27.13	1.96	–	–	–	–	–
